The term IC50 denotes the concentration at which inhibition is half-maximal. A word on the Tm: it is the temperature at the midpoint of the melting transition.

Calls of active or inactive are those of the source. The calls are words filed in the database; no cut-off is given here.

The nature of series [1]: Stability in human liver microsomes assessed as parent compound remaining measured after 60 mins. The class given is ADME, Microsome. The note with it: read-out: Stability.
The target in series [2] is T1, Non-receptor tyrosine-protein kinase TYK2 (Homo sapiens, UniProt P29597). As to the kind of experiment: Inhibition of TYK2 dependent IFNalpha-stimulated STAT3 phosphorylation in human Jurkat cells. The class given is cell-based.
A short description of series [3]: Stability in mouse liver microsomes assessed as parent compound remaining measured after 60 mins. The note with it: read-out: Stability. Type of series: ADME, Microsome. A general note: Liver microsomes are vesicles of endoplasmic reticulum, rich in cytochrome P450 enzymes.
Series [4] deals with T1, Non-receptor tyrosine-protein kinase TYK2. In words: Binding affinity to TYK2 JH2 domain (unknown origin) assessed as melting temperature at 10 uM by thermal shift assay. Conditions: tested as the 2H-labelled form.
For series [5] the target is unchanged. In words: Binding affinity to TYK2 JH2 domain (unknown origin) assessed as melting temperature at 1 uM by thermal shift assay. Conditions: tested as the 2H-labelled form.
The subject of another series is Mus musculus. In words: Anti-colitis activity against anti-CD40 induced immunodeficient Rag1 KO colitis mouse model assessed as decrease in colon weight at 15 to 30 mg/kg, po bid. Conditions: dose 15-30 mg/kg, tested as the 2H-labelled form. The class given is functional, organism-based.

T1 sequence (P29597 whole entry): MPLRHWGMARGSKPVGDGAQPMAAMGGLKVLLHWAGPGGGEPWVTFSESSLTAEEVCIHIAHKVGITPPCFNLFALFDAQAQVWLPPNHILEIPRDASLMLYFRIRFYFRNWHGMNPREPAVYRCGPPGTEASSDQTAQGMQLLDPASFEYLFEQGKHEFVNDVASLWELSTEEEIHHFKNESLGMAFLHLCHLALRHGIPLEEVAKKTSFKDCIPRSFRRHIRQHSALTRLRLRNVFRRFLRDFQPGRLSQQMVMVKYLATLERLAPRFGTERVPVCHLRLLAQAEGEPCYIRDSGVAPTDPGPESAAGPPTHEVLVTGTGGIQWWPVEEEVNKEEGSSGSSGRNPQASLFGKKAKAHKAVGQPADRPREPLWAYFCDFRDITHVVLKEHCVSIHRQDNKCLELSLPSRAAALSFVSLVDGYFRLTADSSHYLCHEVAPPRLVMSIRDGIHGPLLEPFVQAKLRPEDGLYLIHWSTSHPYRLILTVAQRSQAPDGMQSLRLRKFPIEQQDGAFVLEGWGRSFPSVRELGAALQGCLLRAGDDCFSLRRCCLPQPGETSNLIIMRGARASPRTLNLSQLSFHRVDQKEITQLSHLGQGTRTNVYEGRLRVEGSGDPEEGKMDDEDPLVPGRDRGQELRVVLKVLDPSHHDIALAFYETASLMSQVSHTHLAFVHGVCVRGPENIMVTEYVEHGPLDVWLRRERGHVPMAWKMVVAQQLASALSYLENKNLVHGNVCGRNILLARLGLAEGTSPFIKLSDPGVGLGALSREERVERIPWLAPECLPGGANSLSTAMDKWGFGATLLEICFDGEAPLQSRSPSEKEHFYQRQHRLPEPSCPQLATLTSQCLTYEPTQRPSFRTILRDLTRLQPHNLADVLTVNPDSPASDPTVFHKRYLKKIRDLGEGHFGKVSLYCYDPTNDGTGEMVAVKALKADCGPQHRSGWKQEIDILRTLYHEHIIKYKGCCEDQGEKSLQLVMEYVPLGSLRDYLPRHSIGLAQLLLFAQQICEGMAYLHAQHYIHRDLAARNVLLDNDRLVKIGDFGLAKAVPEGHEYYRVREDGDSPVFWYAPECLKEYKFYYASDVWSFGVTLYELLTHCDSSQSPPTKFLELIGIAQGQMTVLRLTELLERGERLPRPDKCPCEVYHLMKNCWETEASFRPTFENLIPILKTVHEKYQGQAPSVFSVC

Consider `[2H]C([2H])([2H])NC(=O)c1nnc(NC(=O)C2CC2)cc1Nc1cccc(C(=O)Nc2ccc(N3CCCCC3=O)c(Cl)c2)c1OC`, for which the values for the remaining at 1 h in series [1] and in series [3] were 0.06% and 4.53%, respectively. Also, the IC50 in series [2] is 3.1 nM.
In the case of `CNC(=O)c1nnc(NC(=O)C2CC2)cc1Nc1cccc(C(=O)Nc2ccc(-c3ncn(C4CC4)n3)cc2)c1OC`, the Tm in series [4] was determined as 62 °C; in series [5], 57 °C. The outcome in the series on Mus musculus was Active.
With `[2H]C([2H])([2H])NC(=O)c1nnc(NC(=O)C2CC2)cc1Nc1cccc(C(=O)Nc2ccc(N3CCCCS3(=O)=O)cc2)c1OC`, the remaining at 1 h came to 3.26% in series [1] and 18.2% in series [3]. The compound further returned an IC50 in series [2] of 1.9 nM.
The corresponding values for `[2H]C([2H])([2H])NC(=O)c1nnc(NC(=O)C2CC2)cc1Nc1cccc(C(=O)Nc2ccc(N3CCCCC3=O)cc2)c1OC` are 50.6%, 53.9% and 1.4 nM.

Values taken from ChEMBL document CHEMBL5252617, “Design, synthesis and biological evaluation of novel N-(methyl-d3) pyridazine-3-carboxamide derivatives as TYK2 inhibitors” (Bioorg Med Chem Lett, 2023).
